Assay results taken from ChEMBL document CHEMBL1125981, “Enantioselective total synthesis and pharmacologic profile of 12-deoxy-12(S)-methyl leukotriene B4” (Bioorg Med Chem Lett, 1991).

Key:
Homo sapiens = species: Homo sapiens; assay: Compound was tested for its ability to inhibit human neutrophil degranulation induced by LTB4; format: functional
[1] = target: Leukotriene B4 receptor 1 (Homo sapiens, UniProt Q15722); assay: Compound was tested for its antagonist activity in a LTB4 human neutrophil receptor binding assay using the natural ligand itself
Sequence of Leukotriene B4 receptor 1 (Q15722 whole entry): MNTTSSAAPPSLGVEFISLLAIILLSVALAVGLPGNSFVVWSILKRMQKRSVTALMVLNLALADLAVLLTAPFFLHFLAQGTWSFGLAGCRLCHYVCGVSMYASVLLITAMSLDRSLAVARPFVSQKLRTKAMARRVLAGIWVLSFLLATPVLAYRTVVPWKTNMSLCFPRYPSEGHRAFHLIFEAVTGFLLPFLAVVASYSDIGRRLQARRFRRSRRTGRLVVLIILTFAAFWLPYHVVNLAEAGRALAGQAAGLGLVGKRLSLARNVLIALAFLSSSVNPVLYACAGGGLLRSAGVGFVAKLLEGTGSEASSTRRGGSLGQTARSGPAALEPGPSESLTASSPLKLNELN

SMILES: CCCCC/C=C\C[C@@H](C)/C=C/C=C/C=C/[C@@H](O)CCCC(=O)O
- IC50 (Homo sapiens): 3.4 µM
- IC50 [1]: 3.8 µM
